Test systems include HCT-116 colon; HCT-15 colon; IGROV1 ovarian; NCI-H226 lung; OVCAR-5 ovarian; RXF 393 renal; SF-268 CNS; SK-MEL-2 melanoma; SN12C renal; UACC-62 melanoma.
Assay in all cases: NCI anticancer screen, dose series, 48 h

The structures appear in SMILES notation.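 Briefly, cells in 96-well plates were exposed to five compound concentrations for 48 h, and endpoints were estimated by linear interpolation. The concentration for full growth arrest is given as TGI.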

Regarding `CC1(C)Oc2ccc3c(=O)cc(-c4ccccc4)oc3c2C1C(=O)O` (stereo not drawn), the TGI in the assay on HCT-116 colon, in the assay with HCT-15 colon, in the assay with IGROV1 ovarian, in the assay with NCI-H226 lung, in the assay with OVCAR-5 ovarian and with RXF 393 renal was > 100 µM in each case. Further, the TGI in the assay with SF-268 CNS, in the assay with SK-MEL-2 melanoma, in the assay on SN12C renal and in the assay with UACC-62 melanoma was > 100 µM throughout.

Consider `COc1ccccc1NC(=O)CC(=O)NN`, for which the TGI with HCT-116 colon, in the assay with HCT-15 colon, with IGROV1 ovarian, in the assay with NCI-H226 lung, with OVCAR-5 ovarian and with RXF 393 renal was > 100 µM throughout. Besides, the TGI in the assay on SF-268 CNS, in the assay on SK-MEL-2 melanoma, with SN12C renal and in the assay with UACC-62 melanoma was > 100 µM throughout.

As for `Cc1c2cccc-2ccc2c3ccccc3n(C(=O)c3ccc(Cl)cc3)c12`, the TGI with HCT-116 colon, with HCT-15 colon, in the assay on IGROV1 ovarian, in the assay on NCI-H226 lung, in the assay with OVCAR-5 ovarian and in the assay with RXF 393 renal was > 100 µM in each case. Besides, the TGI in the assay on SF-268 CNS, with SK-MEL-2 melanoma, with SN12C renal and with UACC-62 melanoma was > 100 µM in each case.

`N/C(=N\N=C\c1ncccc1O)NO`: the TGI is > 100 µM in the assay with HCT-116 colon; > 100 µM in the assay on HCT-15 colon; > 100 µM in the assay on IGROV1 ovarian; 58.1 µM with NCI-H226 lung; > 100 µM in the assay with OVCAR-5 ovarian; > 100 µM in the assay on RXF 393 renal. The TGI is 90.8 µM in the assay with SF-268 CNS, > 100 µM in the assay on SK-MEL-2 melanoma, > 100 µM in the assay on SN12C renal and 43 µM with UACC-62 melanoma.

As to `CCOC(=O)CCC(C(=O)OCC)n1nnc2cc(Nc3c(C)[n+]([O-])c4cc(F)c(OCC)cc4[n+]3[O-])ccc21` (stereo not drawn), the TGI in the assay with HCT-116 colon is > 100 µM; in the assay on HCT-15 colon, > 100 µM; in the assay on IGROV1 ovarian, > 100 µM; with NCI-H226 lung it was > 100 µM; with OVCAR-5 ovarian it was > 100 µM; in the assay on RXF 393 renal, 38.7 µM. Besides, the TGI in the assay on SF-268 CNS was 94.9 µM; in the assay on SK-MEL-2 melanoma it was > 100 µM; in the assay on SN12C renal, > 100 µM; in the assay on UACC-62 melanoma it was > 100 µM.

As to `O=C(c1ccc(Cl)cc1)N1CCN=C1c1cc2ccccc2c2ccccc12`, the TGI in the assay with HCT-116 colon was found to be 28.1 µM; in the assay with HCT-15 colon, 31.3 µM; in the assay with IGROV1 ovarian, 29.2 µM; in the assay on OVCAR-5 ovarian, 35.1 µM; with RXF 393 renal, 30.6 µM; with SF-268 CNS it was 31.9 µM. Further, the TGI in the assay with SK-MEL-2 melanoma is 31.4 µM; in the assay on SN12C renal, 30.6 µM; with UACC-62 melanoma it was 27.7 µM.

With `CCCCCCCCOc1ccc(/C=C/C2=[N+](CCO)CCO2)cc1`, the TGI worked out at 10.2 µM with HCT-116 colon; 25 µM in the assay on HCT-15 colon; 13.8 µM in the assay with IGROV1 ovarian; 12.3 µM with NCI-H226 lung; 26.4 µM in the assay on OVCAR-5 ovarian; 7.91 µM in the assay with RXF 393 renal. Moreover, the TGI in the assay with SF-268 CNS is 20.5 µM; in the assay with SK-MEL-2 melanoma, 7.26 µM; in the assay with SN12C renal, 11.9 µM; in the assay with UACC-62 melanoma, 17.2 µM.

Take `CCNc1cc2c3c(c1)CCN3CCC2`: the TGI in the assay with HCT-116 colon, with HCT-15 colon, with IGROV1 ovarian, in the assay on NCI-H226 lung, with RXF 393 renal and in the assay with SF-268 CNS was > 10 µM in each case. Further, the TGI in the assay on SK-MEL-2 melanoma, in the assay with SN12C renal and in the assay with UACC-62 melanoma was > 10 µM each time.

As to `O=C(O)/C=C\C(=O)Nn1c(Cc2ccc(Cl)cc2)n[nH]c1=O`, the TGI in the assay with HCT-116 colon, in the assay with HCT-15 colon, with IGROV1 ovarian, in the assay on NCI-H226 lung, in the assay with OVCAR-5 ovarian and with RXF 393 renal was > 100 µM in each case. The TGI in the assay on SF-268 CNS, with SK-MEL-2 melanoma, in the assay on SN12C renal and in the assay on UACC-62 melanoma was > 100 µM throughout.

On to `O=c1c2ccccc2nc2ccc3c(Cl)[nH][nH]c3c12`, for which the TGI in the assay on HCT-116 colon was > 100 µM; with HCT-15 colon, > 100 µM; in the assay on IGROV1 ovarian, > 100 µM; in the assay on NCI-H226 lung, > 48.4 µM; with OVCAR-5 ovarian, 98 µM; in the assay on RXF 393 renal, > 100 µM. Further, the TGI was > 100 µM with SF-268 CNS, > 100 µM in the assay on SK-MEL-2 melanoma, > 100 µM with SN12C renal and > 77.7 µM with UACC-62 melanoma.

Consider `Cc1c2ccncc2c(C)c2c1[nH]c1ccc(OCCN(C)C)cc12`, for which the TGI came out at 0.256 µM with HCT-116 colon; 0.706 µM with HCT-15 colon; 1.42 µM with IGROV1 ovarian; 0.976 µM with NCI-H226 lung; 1.59 µM in the assay on OVCAR-5 ovarian; 0.906 µM with RXF 393 renal. Also, the TGI in the assay on SF-268 CNS came to 0.919 µM; in the assay with SK-MEL-2 melanoma, 1.87 µM; in the assay on SN12C renal it was 1.61 µM; in the assay on UACC-62 melanoma, 2.35 µM.

For the compound `Cc1ccccc1NC(=O)CC(=O)NNC(Sc1ccccc1)c1cc(N=Nc2ccc(Br)cc2)ccc1O` (stereo not drawn), the TGI in the assay on HCT-116 colon was 1.19 µM; with HCT-15 colon it was > 10 µM; in the assay on IGROV1 ovarian, > 10 µM; in the assay on NCI-H226 lung, > 10 µM; in the assay with OVCAR-5 ovarian, > 10 µM; in the assay on RXF 393 renal, > 10 µM. Besides, the TGI is > 10 µM in the assay with SF-268 CNS, > 10 µM in the assay on SK-MEL-2 melanoma, > 10 µM with SN12C renal and 8.65 µM in the assay on UACC-62 melanoma.

In the case of `Cc1ccc(S(=O)(=O)NC(=O)C2=C3SCCN3C(=O)N(S(=O)(=O)c3ccc(C)cc3)C2c2ccccc2)cc1` (stereo not drawn), the TGI was > 100 µM in the assay on HCT-116 colon; > 100 µM with HCT-15 colon; > 100 µM with IGROV1 ovarian; > 100 µM in the assay on NCI-H226 lung; > 100 µM in the assay on OVCAR-5 ovarian; 78.7 µM in the assay on RXF 393 renal. Besides, the TGI with SF-268 CNS, with SK-MEL-2 melanoma, with SN12C renal and in the assay with UACC-62 melanoma was > 100 µM each time.

Turning to `Cc1cc(S(=O)(=O)/N=C(/NN)Nc2ccc(Cl)cc2)c(S)cc1Cl`, the TGI is 20 µM in the assay on HCT-116 colon; 53 µM with HCT-15 colon; 39.7 µM in the assay with IGROV1 ovarian; 43.3 µM with NCI-H226 lung; 12.9 µM in the assay on OVCAR-5 ovarian; 78.8 µM with RXF 393 renal. Besides, the TGI turned out to be 61.8 µM with SF-268 CNS, 76.9 µM with SK-MEL-2 melanoma, 75.8 µM in the assay on SN12C renal and 27.4 µM with UACC-62 melanoma.

For the origin of these results see PubChem BioAssay (NCI).
